Results taken from ChEMBL document CHEMBL1133809, “Synthesis of N-propargylphenelzine and analogues as neuroprotective agents” (Bioorg Med Chem Lett, 2001).

Columns and labels:
[1] = target: T1, Amine oxidase [flavin-containing] A (Rattus norvegicus, UniProt P21396); assay: In vitro ability to inhibit Monoamine oxidase A activity in rat whole brain in vitro
T1 sequence (P21396 whole entry): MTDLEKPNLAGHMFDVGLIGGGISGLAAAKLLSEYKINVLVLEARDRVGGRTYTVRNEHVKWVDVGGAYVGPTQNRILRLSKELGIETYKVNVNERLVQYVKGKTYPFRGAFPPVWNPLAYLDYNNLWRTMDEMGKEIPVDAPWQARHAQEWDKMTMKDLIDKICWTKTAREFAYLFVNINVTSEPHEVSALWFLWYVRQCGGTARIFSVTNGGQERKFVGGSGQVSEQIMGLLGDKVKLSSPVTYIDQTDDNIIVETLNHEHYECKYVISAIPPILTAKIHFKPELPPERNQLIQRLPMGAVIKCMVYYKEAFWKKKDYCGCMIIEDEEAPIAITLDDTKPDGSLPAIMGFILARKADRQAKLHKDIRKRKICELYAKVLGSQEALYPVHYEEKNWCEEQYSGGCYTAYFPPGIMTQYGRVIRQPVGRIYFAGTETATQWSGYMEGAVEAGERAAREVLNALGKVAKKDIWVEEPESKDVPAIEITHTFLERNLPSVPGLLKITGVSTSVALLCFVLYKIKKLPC

[2] = organism: Mus musculus; assay: Compound tested for the prevention of DSP- 4- induced depletion of noradrenaline (NA) in mouse hippocampus ex vivo; format: functional
[3] = target: T2, Amine oxidase [flavin-containing] B (Rattus norvegicus, UniProt P19643); assay: In vitro ability to inhibit Monoamine oxidase B activity in rat whole brain in vitro
T2 sequence (P19643 whole entry): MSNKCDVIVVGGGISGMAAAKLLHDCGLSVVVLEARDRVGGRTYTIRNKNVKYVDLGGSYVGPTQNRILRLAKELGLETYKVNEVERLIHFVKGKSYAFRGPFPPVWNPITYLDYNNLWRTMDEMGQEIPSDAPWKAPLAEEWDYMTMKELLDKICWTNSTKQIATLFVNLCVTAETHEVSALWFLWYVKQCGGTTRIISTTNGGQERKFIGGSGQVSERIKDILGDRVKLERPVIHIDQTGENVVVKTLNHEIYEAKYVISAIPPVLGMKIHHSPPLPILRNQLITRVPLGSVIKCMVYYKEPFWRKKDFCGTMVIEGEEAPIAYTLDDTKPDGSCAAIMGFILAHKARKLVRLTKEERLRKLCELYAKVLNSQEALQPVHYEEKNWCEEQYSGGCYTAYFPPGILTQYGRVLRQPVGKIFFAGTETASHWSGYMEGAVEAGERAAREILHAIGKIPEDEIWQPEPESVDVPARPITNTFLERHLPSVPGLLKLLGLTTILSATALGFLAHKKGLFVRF

Row | Compound | IC50 [1] | NA restoration [2] | IC50 [3]
1 | C#CCNNC/C=C/c1ccccc1 | 7900 nM | -7.21% | 10200 nM
2 | C#CCN(N)c1ccccc1 | 11300 nM | -49.82% | 1010 nM
3 | C#CCN(N)C/C=C/c1ccccc1 | 1170 nM | -39.2% | 3530 nM
4 | C#CCNNCc1ccccc1 | 362 nM | 31.74% | 2840 nM
5 | C#CCN(N)CCc1ccccc1 | 2040 nM | 56.38% | 76.5 nM
6 | C#CCNNCCc1ccccc1 | 1850 nM | 76.83% | 3180 nM
7 | C#CCN(N)Cc1ccccc1 | 1560 nM | 33.58% | 121 nM
8 | NNCCc1ccccc1 [PHENELZINE] | 30 nM | 43.48% | 76.3 nM
9 | C#CCN(C)[C@H](C)Cc1ccccc1 [SELEGILINE] | – | 79.71% | –
